From US12370182B2, “Bicyclic derivatives as GABAA A5 receptor modulators” (RICHTER GEDEON NYRT., priority 2018, dated 2025)

Columns and labels:
[1] = target: human recombinant GABAA α1β3γ2 receptor (Homo sapiens (Human), UniProt P14867+P18507); assay: Functional assay, QPatch automated patch clamp, GABA-evoked currents; type: cell-based; conditions: test compound 10 μM, 1 μM GABA, HEK293 cells, percentage modulation of peak current
Protocol: (§1) Human HEK293 cell lines expressing GABAA α1β3γ2 and GABAAα5β3γ2 receptors were used in functional assays using the QPatch automated patch clamp system.
(§2) HEK293 cell lines stably expressing human recombinant GABAA α1β3γ2 receptor subunits (Millipore, CYL3073) or human recombinant GABAA α5β3γ2 receptor subunits (Millipore, CYL3053) were cultured in DMEM supplemented with 10% FBS (Gibco), passed two times per week and plated on Petri dishes previously coated with poly-d-lysine.
(§3) Automated whole-cell patch clamp recordings were made from cells 2-4 days after plating. Cells were detached using trypsin/EDTA (Sigma) treatment (2 minutes in 0.25% trypsin at 37° C.), then, after centrifugation (125 G, 3 min, 2×), resuspended in a serum-free based media (Gibco, CHO—S-SFM-II) containing 12.5 mM HEPES, 1× penicillin-streptomycin-amphotericin (SigmaMix) and soybean trypsin inhibitor (Sigma, 0.04 mg/ml).
(§4) Cell suspension, as well as the extracellular solution (130 mM NaCl, 5 mM KCl, 5.1 mM HEPES, 4.9 mM HEPES-Na, 10 mM CaCl2), 2 mM MgCl2, 10 mM glucose and 0.1% DMSO, pH=7.35-7.4) and the intracellular solution (80 mM KCl, 50 mM KF, 36 mM KOH, 10 mM EGTA, 10 mM HEPES, 1.75 mM MgCl2, 0.5 mM CaCl2), 4 mM Na2ATP. 14 mM phosphocreatine, 50 U/ml creatine-phosphokinase, 0.3 mM GTP, pH=7.25-7.3) were added to the QPatch-HTX automated patch clamp system (Sophion) in single-cell mode at room temperature. […] At the end of the experiment 100 μM GABA was applied to saturate the GABA-response and to assess the efficacy of the control GABA application.
(§5) The percentage modulation was calculated from the comparison of GABA-evoked peak current amplitudes in the presence and absence of the test compound.

[2] = target: T1, human recombinant GABAA α5β3γ2 receptor (Homo sapiens (Human), UniProt P18507+P31644); assay: as above; type: cell-based; conditions: test compound 10 μM, 1 μM GABA, HEK293 cells, percentage modulation of peak current
Protocol: as §1, §2, §3, §4, §5

[3] = target: T1, human recombinant GABAA α5β3γ2 receptor; assay: Binding assay, [3H]Ro151788 displacement on membranes of HEK cells; conditions: 0.5 nM [3H]Ro151788, 60 minutes at 4° C., Cheng-Prusoff; read-out: hGABAA α5 Ki
Procedure, shortened: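 HEK-cell membranes with recombinant human α5β3γ2 incubated 60 min at 4 °C with 0.5 nM [3H]Ro151788 in 50 mM Tris pH 7.4, 100 mM KCl; nonspecific binding with 10 μM diazepam. Filtration, scintillation count; % inhibition of specific binding, IC50 from ≥6 concentrations in triplicate, Ki via Cheng-Prusoff.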

Sequence of human recombinant GABAA α1β3γ2 receptor (P14867 28-456): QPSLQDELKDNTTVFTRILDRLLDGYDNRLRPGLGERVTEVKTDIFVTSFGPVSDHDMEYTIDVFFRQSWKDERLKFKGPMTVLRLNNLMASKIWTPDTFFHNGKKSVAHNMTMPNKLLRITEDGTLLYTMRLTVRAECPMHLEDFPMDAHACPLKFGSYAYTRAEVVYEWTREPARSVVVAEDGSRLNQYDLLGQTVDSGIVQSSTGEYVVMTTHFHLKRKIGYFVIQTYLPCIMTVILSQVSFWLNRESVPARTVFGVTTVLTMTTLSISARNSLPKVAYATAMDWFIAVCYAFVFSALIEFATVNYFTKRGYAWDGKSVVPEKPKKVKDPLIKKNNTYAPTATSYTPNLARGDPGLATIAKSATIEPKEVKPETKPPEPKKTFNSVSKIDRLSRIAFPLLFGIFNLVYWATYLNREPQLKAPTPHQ
Sequence of human recombinant GABAA α1β3γ2 receptor (P28472 26-473 partner): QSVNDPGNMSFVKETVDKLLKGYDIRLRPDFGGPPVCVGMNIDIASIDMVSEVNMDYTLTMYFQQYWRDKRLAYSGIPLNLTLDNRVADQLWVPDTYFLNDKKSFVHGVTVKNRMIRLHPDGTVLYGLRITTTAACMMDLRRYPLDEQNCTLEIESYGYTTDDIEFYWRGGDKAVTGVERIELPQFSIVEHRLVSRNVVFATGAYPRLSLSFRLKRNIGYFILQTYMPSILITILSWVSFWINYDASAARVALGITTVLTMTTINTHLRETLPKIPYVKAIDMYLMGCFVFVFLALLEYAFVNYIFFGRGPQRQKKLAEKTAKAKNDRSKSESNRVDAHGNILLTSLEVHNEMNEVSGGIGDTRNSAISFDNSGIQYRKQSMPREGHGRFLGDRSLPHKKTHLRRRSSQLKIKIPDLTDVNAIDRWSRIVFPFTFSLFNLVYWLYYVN
Sequence of human recombinant GABAA α1β3γ2 receptor (P18507 40-475): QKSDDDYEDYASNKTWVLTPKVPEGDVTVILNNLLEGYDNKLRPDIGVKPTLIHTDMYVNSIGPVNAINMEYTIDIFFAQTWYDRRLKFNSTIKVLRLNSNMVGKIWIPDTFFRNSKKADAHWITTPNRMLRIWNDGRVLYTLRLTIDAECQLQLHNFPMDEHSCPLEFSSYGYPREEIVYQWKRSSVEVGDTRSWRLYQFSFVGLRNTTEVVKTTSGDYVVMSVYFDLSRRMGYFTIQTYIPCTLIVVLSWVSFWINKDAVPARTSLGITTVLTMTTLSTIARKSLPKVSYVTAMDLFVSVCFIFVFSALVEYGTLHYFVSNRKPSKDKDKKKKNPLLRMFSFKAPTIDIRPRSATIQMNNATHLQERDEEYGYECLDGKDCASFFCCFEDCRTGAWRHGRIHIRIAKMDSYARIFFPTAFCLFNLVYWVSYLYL
T1 sequence (P31644 32-462): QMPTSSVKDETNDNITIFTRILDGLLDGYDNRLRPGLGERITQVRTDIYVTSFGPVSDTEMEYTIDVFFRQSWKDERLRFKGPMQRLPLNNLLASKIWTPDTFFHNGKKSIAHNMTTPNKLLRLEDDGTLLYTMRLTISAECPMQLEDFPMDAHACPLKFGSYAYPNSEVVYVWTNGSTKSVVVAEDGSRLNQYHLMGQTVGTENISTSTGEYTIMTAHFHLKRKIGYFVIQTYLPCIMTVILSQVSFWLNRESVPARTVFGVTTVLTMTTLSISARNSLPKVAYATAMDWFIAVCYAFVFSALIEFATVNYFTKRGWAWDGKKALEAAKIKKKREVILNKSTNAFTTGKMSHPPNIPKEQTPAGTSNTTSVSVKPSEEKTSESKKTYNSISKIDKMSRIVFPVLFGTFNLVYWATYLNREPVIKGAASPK
T1 sequence (P28472 26-473 partner): as the sequence (P28472 26-473 partner) above
T1 sequence (P18507 40-475): as the sequence (P18507 40-475) above

SMILES	hGABAA α1 efficacy [1] [%]	hGABAA α5 efficacy [2] [%]	Ki [3] [nM]
Cc1onc(-c2ccc(F)cc2)c1COc1ccc2c(n1)CCN(C(=O)C1CCOC1)C2 (centres unmarked) [Example 2, 2-{[3-(4-fluorophenyl)-5-methyl-1,2-oxazol-4-yl]methoxy}-6-(oxolane-3-carbonyl)-5,6,7,8-tetrahydro-1,6-naphthyridine]	−14	−40	7
Cc1onc(-c2ccc(F)cc2)c1COc1ccc2c(n1)CCN(C(=O)C1CCS(=O)(=O)CC1)C2 [Example 6, 4-(2-{[3-(4-fluorophenyl)-5-methyl-1,2-oxazol-4-yl]methoxy}-5,6,7,8-tetrahydro-1,6-naphthyridine-6-carbonyl)-1lambda6-thiane-1,1-dione]	−10	−38	2.7
Cc1onc(-c2ccc(F)cc2)c1COc1ccc2c(n1)CCN(C(=O)CS(C)(=O)=O)C2 [Example 8, 1-(2-{[3-(4-fluorophenyl)-5-methyl-1,2-oxazol-4-yl]methoxy}-5,6,7,8-tetrahydro-1,6-naphthyridin-6-yl)-2-methanesulfonylethan-1-one]	−2	−39	3.7
Cc1onc(-c2ccc(F)cc2)c1COc1ccc2c(n1)CCN(C(=O)C1CCOCC1)C2 [Example 9, 2-{[3-(4-fluorophenyl)-5-methyl-1,2-oxazol-4-yl]methoxy}-6-(oxane-4-carbonyl)-5,6,7,8-tetrahydro-1,6-naphthyridine]	−9	−37	6.2
Cc1onc(-c2ccc(F)cc2)c1COc1ccc2c(n1)CCN(C(=O)C1CC(=O)N(C)C1)C2 (centres unmarked) [Example 13, 4-(2-{[3-(4-fluorophenyl)-5-methyl-1,2-oxazol-4-yl]methoxy}-5,6,7,8-tetrahydro-1,6-naphthyridine-6-carbonyl)-1-methylpyrrolidin-2-one]	−3	−34	4.3
CC(=O)N1CCc2nc(OCc3c(C)nnn3-c3ccc(F)cc3)ccc2C1 [Example 14, 1-(2-{[1-(4-fluorophenyl)-4-methyl-1H-1,2,3-triazol-5-yl]methoxy}-5,6,7,8-tetrahydro-1,6-naphthyridin-6-yl)ethan-1-one]	0	−36	28
Cc1nnn(-c2ccc(F)cc2)c1COc1ccc2c(n1)CCN(C(=O)C1CCCO1)C2 (centres unmarked) [Example 15, 2-{[1-(4-fluorophenyl)-4-methyl-1H-1,2,3-triazol-5-yl]methoxy}-6-(oxolane-2-carbonyl)-5,6,7,8-tetrahydro-1,6-naphthyridine]	−8	−43	42
Cc1nnn(-c2ccc(F)cc2)c1COc1ccc2c(n1)CCN(C(=O)C1CCOC1)C2 (centres unmarked) [Example 16, 2-{[1-(4-fluorophenyl)-4-methyl-1H-1,2,3-triazol-5-yl]methoxy}-6-(oxolane-3-carbonyl)-5,6,7,8-tetrahydro-1,6-naphthyridine]	−7	−39	42
Cc1nnn(-c2ccc(F)cc2)c1COc1ccc2c(n1)CCN(C(=O)[C@@H]1CCOC1)C2 [Example 17, 2-{[1-(4-fluorophenyl)-4-methyl-1H-1,2,3-triazol-5-yl]methoxy}-6-[(3R)-oxolane-3-carbonyl]-5,6,7,8-tetrahydro-1,6-naphthyridine]	−6	−37	69
Cc1nnn(-c2ccc(F)cc2)c1COc1ccc2c(n1)CCN(C(=O)[C@H]1CCOC1)C2 [Example 18, 2-{[1-(4-fluorophenyl)-4-methyl-1H-1,2,3-triazol-5-yl]methoxy}-6-[(3S)-oxolane-3-carbonyl]-5,6,7,8-tetrahydro-1,6-naphthyridine]	−5	−45	50
Cc1nnn(-c2ccc(F)cc2)c1COc1ccc2c(n1)CCN(C(=O)C1CCS(=O)(=O)CC1)C2 [Example 23, 4-(2-{[1-(4-fluorophenyl)-4-methyl-1H-1,2,3-triazol-5-yl]methoxy}-5,6,7,8-tetrahydro-1,6-naphthyridine-6-carbonyl)-1lambda6-thiane-1,1-dione]	−4	−47	45
Cc1nnn(-c2ccc(Cl)cc2)c1COc1ccc2c(n1)CCN(C(=O)C1CCOC1)C2 (centres unmarked) [Example 29, 2-{[1-(4-chlorophenyl)-4-methyl-1H-1,2,3-triazol-5-yl]methoxy}-6-(oxolane-3-carbonyl)-5,6,7,8-tetrahydro-1,6-naphthyridine]	−2	−25	
Cc1nnn(-c2ccc(F)cc2)c1COc1ccc2c(n1)CCN(C(=O)N(C)C)C2 [Example 76, 2-{[1-(4-fluorophenyl)-4-methyl-1H-1,2,3-triazol-5-yl]methoxy}-N,N-dimethyl-5,6,7,8-tetrahydro-1,6-naphthyridine-6-carboxamide]			30
Cc1nnn(-c2ccc(F)cc2)c1COc1ccc2c(n1)CCN(C(=O)N1CCCC1)C2 [Example 77, 2-{[1-(4-fluorophenyl)-4-methyl-1H-1,2,3-triazol-5-yl]methoxy}-6-(pyrrolidine-1-carbonyl)-5,6,7,8-tetrahydro-1,6-naphthyridine]			66
Cc1nnn(-c2ccc(F)cc2)c1COc1ccc2c(n1)CCN(C(=O)Nc1ccccc1Cl)C2 [Example 79, N-(2-chlorophenyl)-2-{[1-(4-fluorophenyl)-4-methyl-1H-1,2,3-triazol-5-yl]methoxy}-5,6,7,8-tetrahydro-1,6-naphthyridine-6-carboxamide]			108
Cc1nnn(-c2ccc(F)cc2)c1COc1ccc2c(n1)CCN(C(=O)N1CCOCC1)C2 [Example 80, 2-{[1-(4-fluorophenyl)-4-methyl-1H-1,2,3-triazol-5-yl]methoxy}-6-(morpholine-4-carbonyl)-5,6,7,8-tetrahydro-1,6-naphthyridine]			38
Cc1nnn(-c2ccc(F)cc2)c1COc1ccc2c(n1)CCN(C(=O)Nc1ccc(Cl)cc1)C2 [Example 81, N-(4-chlorophenyl)-2-{[1-(4-fluorophenyl)-4-methyl-1H-1,2,3-triazol-5-yl]methoxy}-5,6,7,8-tetrahydro-1,6-naphthyridine-6-carboxamide]			37
Cc1onc(-c2ccc(F)cc2)c1COc1ccc2c(n1)CCN(C(=O)N1CCOCC1)C2 [Example 82, 2-{[3-(4-fluorophenyl)-5-methyl-1,2-oxazol-4-yl]methoxy}-6-(morpholine-4-carbonyl)-5,6,7,8-tetrahydro-1,6-naphthyridine]			5.2
Cc1onc(-c2ccc(F)cc2)c1COc1ccc2c(n1)CCN(C(=O)N(C)C)C2 [Example 83, 2-{[3-(4-fluorophenyl)-5-methyl-1,2-oxazol-4-yl]methoxy}-N,N-dimethyl-5,6,7,8-tetrahydro-1,6-naphthyridine-6-carboxamide]			3.8
Cc1onc(-c2ccc(F)cc2)c1COc1ccc2c(n1)CCN(C(=O)N1CCCC1)C2 [Example 84, 2-{[3-(4-fluorophenyl)-5-methyl-1,2-oxazol-4-yl]methoxy}-6-(pyrrolidine-1-carbonyl)-5,6,7,8-tetrahydro-1,6-naphthyridine]			8.9
Cc1onc(-c2ccc(F)cc2)c1COc1ccc2c(n1)CCN(C(=O)NC1CCOC1)C2 (centres unmarked) [Example 86, 2-{[3-(4-fluorophenyl)-5-methyl-1,2-oxazol-4-yl]methoxy}-N-(oxolan-3-yl)-5,6,7,8-tetrahydro-1,6-naphthyridine-6-carboxamide]			6.5
